In brackets after ≈: the same amount, converted by molar mass.
Assays:
[1] = Solubility of sumatriptan in receiver fluid; type: physicochemical; settings: receiver fluid (10% ethanol in PBS), aqueous with cosolvent or surfactant or cyclodextrin; 10% ethanol in PBS (receiver fluid); read-out: maximum solubility
[2] = Franz cell permeation and mass balance; type: in vitro ADME, pig
Procedure: [table] […] A permeation study was performed in order to investigate over what period of time a quantifiable amount of drug could be detected in the receiver fluid. Individually calibrated Franz cells with an average surface area and volume of approximately 0.6 cm^2 and 2 ml respectively were employed to determine the permeation of sumatriptan from the submicron particle formulation. The oral pig mucosa was mounted between two halves of the Franz cell with the mucosal side facing the donor compartment. The receptor compartment 22, having a clamp attachment lug 24, was filled with receiver fluid 27 (10% ethanol in PBS), stirred constantly with a PTFE-coated magnetic follower driven by submersible magnetic stirrer and maintained at 37° C. in a water bath. Approximately 5 mg of each formulation 26 was placed into the donor compartment 21 and the donor compartment was covered with Parafilm® throughout the study. Following the application of the drug formulation, the receiver fluid 27 (200 μl) was removed from the receiver compartment 22 via the sampling arm 25 after, e.g. 1, 2, 4, 6, 24 and 48 hours and analysed via HPLC. Each removed sample was replaced by an equal volume of fresh pre-warmed (37° C.) receiver fluid. At the end of the experiment, a mass balance investigation was performed as follows: A. Surface drug (S), the surface of the oral mucosa containing each formulation was wiped carefully using a sequence of dry and wet cotton buds. Collectively, the cotton buds from each Franz cell were immersed into glass vials containing 5 ml of receiver fluid. The vials were placed in an oscillating shaker and left overnight. An aliquot of 1 ml of the sample was then removed and analysed via HPLC. B. The oral mucosa was placed into a glass vial containing 5 ml of receiver fluid, and placed on a shaker at room temperature overnight. An aliquot of 1 ml of the sample was then removed and analysed via HPLC. C. Franz cell receptor compartment interface (joining section with donor) was swabbed with cotton buds. Collectively, the cotton buds from each Franz cell were immersed into a glass vial containing 5 ml receiver fluid. The vials were then placed in an oscillating shaker and left overnight. An aliquot of 1 ml of the sample was then removed and analysed via HPLC. D. Franz cell donor compartment interface (joining section with receptor) and internal face of the donor compartment was swabbed with cotton buds. Collectively, the cotton buds from each Franz cell were immersed into a glass vial containing 5 ml receiver fluid. The vials were then placed in an oscillating shaker and left overnight. An aliquot of 1 ml of the sample was then removed and analysed via HPLC. This experiment was carried out with the submicron sumatriptan formulation (a remade batch corresponding to Example 1A, batch 25#37/01) (n=6), pure unprocessed sumatriptan (n=3) and blank (n=2), i.e. cells with no formulation applied. […] Test Item 1 is the 40% sumatriptan submicron particle formulation (approximately 5 mg applied to the surface of the mucosa, n=6±SD), Test Item 2 is the unprocessed sumatriptan raw material (approximately 5 mg applied to the surface of the mucosa, n=3±SD) and the Blank is no Test Item applied (n=2).

[3] = Stability of sumatriptan in receiver fluid; type: physicochemical; settings: 48 hours
Procedure: [table] […] The stability of the raw drug (sumatriptan) in the receiver fluid was determined when stored at 4° C., 25° C., 37° C. and −20° C. over a period of 48 hours.

- solubility [1]: 1930 µg/mL (≈ 6.54 mM)
- % recovered compared to what was applied ([2]; Donor): 1.49%
- Sumatriptan recovered ([2]; Donor): 95.9 µg
- % recovered compared to what was applied ([2]; Mucosa): 8.10%
- Sumatriptan recovered ([2]; Mucosa): 522 µg
- % recovered compared to what was applied ([2]; Plunger): 5.37%
- Sumatriptan recovered ([2]; Plunger): 346 µg
- % recovered compared to what was applied ([2]; Receptor): 0.28%
- Sumatriptan recovered ([2]; Receptor): 18.2 µg
- % recovered compared to what was applied ([2]; Surface): 49.33%
- Sumatriptan recovered ([2]; Surface): 3180 µg
- % recovered compared to what was applied ([2]; Total amount in receiver fluid): 29.86%
- Sumatriptan recovered ([2]; Total amount in receiver fluid, approximately 5 mg applied): 1920 µg
- recovery ([2]; pig, 5 mg, mass balance, based on weight of formulation applied, read-out: total amount recovered compared to the theoretical recovery, Mean): 94.4%
- Peak area (stability in receiver fluid) ([3]; 1 μg/ml, 4° C.): 9366
- Peak area (stability in receiver fluid) ([3]; 1 μg/ml, 25° C.): 9415
- Peak area (stability in receiver fluid) ([3]; 1 μg/ml, 37° C.): 7094
- Peak area (stability in receiver fluid) ([3]; 1 μg/ml, −20° C.): 9514
- Peak area (stability in receiver fluid) ([3]; 50 μg/ml, 4° C.): 469462
- Peak area (stability in receiver fluid) ([3]; 50 μg/ml, 25° C.): 470115
- Peak area (stability in receiver fluid) ([3]; 50 μg/ml, 37° C.): 473418
- Peak area (stability in receiver fluid) ([3]; 50 μg/ml, −20° C.): 467385
SMILES: CNS(=O)(=O)Cc1ccc2[nH]cc(CCN(C)C)c2c1 [sumatriptan]
